Literature values in article PMC7904743, “WIDOCK: a reactive docking protocol for virtual screening of covalent inhibitors” (Journal of Computer-Aided Molecular Design, 2021).
Like-named read-outs stand apart in the source and are kept apart here.

What was measured:
NUDT7 = settings: protein labeling at 200 μM; experimental actives if % labeling higher than 50%; cited from earlier work
[1] = thiol reactivity, cited from earlier work
OTUB2 = settings: experimental actives if % labeling higher than 50%; cited from earlier work
[2] = natural log of average rate constant k
[3] = natural logarithm of average rate constant

SMILES	NUDT7 % labeling (NUDT7) [%]	ln(avg k) [1, 2]	ln(avg k) [1, 3]	OTUB2 % labeling (OTUB2) [%]
O=C(CCl)N1CCN(Cc2ccc(Br)s2)CC1 [PCM-0102169, O=C(CCl)N1CCN(Cc2ccc(Br)s2)CC1]	0	-15.949	-15.949	0
O=C(CCl)Nc1ccccc1C(F)(F)F [PCM-0102170, O=C(CCl)Nc1ccccc1C(F)(F)F]	0	-16.769	-16.769	0
Cc1ccc(NC(=O)NC(=O)CCl)c(C)c1 [PCM-0102171, Cc1ccc(NC(=O)NC(=O)CCl)c(C)c1]	20	-15.812	-15.812	10
CC(=O)Nc1cccc(NC(=O)CCl)c1 [PCM-0102172, CC(=O)Nc1cccc(NC(=O)CCl)c1]	0	-15.748	-15.748	0
COc1ccccc1N1CCN(C(=O)CCl)CC1 [PCM-0102173, COc1ccccc1N1CCN(C(=O)CCl)CC1]	0	-15.826	-15.826	0
O=C(CCl)NCc1cccc(Cl)c1 [PCM-0102174, O=C(CCl)NCc1cccc(Cl)c1]	0	-16.752	-16.752	25
Cc1cc(NC(=O)CCl)ccc1N1CCCC1 [PCM-0102175, Cc1cc(NC(=O)CCl)ccc1N1CCCC1]	13	-15.490	-15.490	39
Cc1ccc(NC(=O)CCl)cc1S(N)(=O)=O [PCM-0102177, Cc1ccc(NC(=O)CCl)cc1S(N)(=O)=O]	10	-15.256	-15.256	27
CN(C(=O)CCl)C1CCS(=O)(=O)C1 (stereo not shown) [PCM-0102178, CN(C(=O)CCl)C1CCS(=O)(=O)C1]	0	-15.027	-15.027	0
O=C(CCl)Nc1cccc(N2CCCC2=O)c1 [PCM-0102179, O=C(CCl)Nc1cccc(N2CCCC2=O)c1]	12	-15.495	-15.495	47
CC(NC(=O)CCl)c1cccs1 (stereo not shown) [PCM-0102180, CC(NC(=O)CCl)c1cccs1]	16	-16.321	-16.321	55
O=C(CCl)Nc1cccc(-c2nnc3n2CCCCC3)c1 [PCM-0102181, O=C(CCl)Nc1cccc(-c2nnc3n2CCCCC3)c1]	0	-15.929	-15.929	0
Cc1c(C#N)c(NC(=O)CCl)n(C2CCCC2)c1C [PCM-0102183, Cc1c(C#N)c(NC(=O)CCl)n(C2CCCC2)c1C]	28	-15.991	-15.991	0
Cc1cccc(N2CCN(C(=O)CCl)CC2)c1 [PCM-0102185, Cc1cccc(N2CCN(C(=O)CCl)CC2)c1]	5	-15.479	-15.479	0
O=C(CCl)Nc1nnc(C2CC2)o1 [PCM-0102187, O=C(CCl)Nc1nnc(C2CC2)o1]	0	-17.207	-17.207	0
CC(NC(=O)CCl)c1cccc(Cl)c1 (stereo not shown) [PCM-0102190, CC(NC(=O)CCl)c1cccc(Cl)c1]	42	-16.294	-16.294	37
O=C(CCl)NCc1ccc(F)cc1 [PCM-0102192, O=C(CCl)NCc1ccc(F)cc1]	0	-16.677	-16.677	31
O=C(CCl)N1CCN(S(=O)(=O)c2ccc3c(c2)CCC3)CC1 [PCM-0102193, O=C(CCl)N1CCN(S(=O)(=O)c2ccc3c(c2)CCC3)CC1]	0	-15.169	-15.169	0
Cc1cc(NC(=O)CCl)on1 [PCM-0102197, Cc1cc(NC(=O)CCl)on1]	0	-16.303	-16.303	0
O=C(CCl)Nc1cccc(Cl)c1 [PCM-0102198, O=C(CCl)Nc1cccc(Cl)c1]	28	-16.004	-16.004	37
O=C(CCl)N1CCN(S(=O)(=O)c2c(F)cccc2F)CC1 [PCM-0102201, O=C(CCl)N1CCN(S(=O)(=O)c2c(F)cccc2F)CC1]	0	-15.250	-15.250	0
Cc1sc(NC(=O)CCl)c(C#N)c1C [PCM-0102202, Cc1sc(NC(=O)CCl)c(C#N)c1C]	0	-15.804	-15.804	0

SMILES	NUDT7 % labeling (NUDT7) [%]	ln(avg k) [1, 2]	ln(avg k) [1, 3]	OTUB2 % labeling (OTUB2) [%]
NC(=O)C1CCCCN1C(=O)CCl (stereo not shown) [PCM-0102203, NC(=O)C1CCCCN1C(=O)CCl]	0	-15.988	-15.988	0
COC(=O)c1ccc(NC(=O)CCl)cc1 [PCM-0102204, COC(=O)c1ccc(NC(=O)CCl)cc1]	0	-15.628	-15.628	0
CC1Cc2cc(S(N)(=O)=O)ccc2N1C(=O)CCl (stereo not shown) [PCM-0102207, CC1Cc2cc(S(N)(=O)=O)ccc2N1C(=O)CCl]	7	-15.427	-15.427	0
Cc1ccc(NC(=O)CCl)cc1Cl [PCM-0102208, Cc1ccc(NC(=O)CCl)cc1Cl]	19	-15.859	-15.859	46
O=C(CCl)Nc1cc2c(cc1Cl)OCO2 [PCM-0102209, O=C(CCl)Nc1cc2c(cc1Cl)OCO2]	13	-16.385	-16.385	27
COc1cc(Cl)c(C)cc1NC(=O)CCl [PCM-0102210, COc1cc(Cl)c(C)cc1NC(=O)CCl]	0	-15.971	-15.971	25
Cc1nnc(NC(=O)CCl)s1 [PCM-0102211, Cc1nnc(NC(=O)CCl)s1]	0	-15.999	-15.999	0
CC(NC(=O)CCl)c1ccc(Cl)cc1Cl (stereo not shown) [PCM-0102212, CC(NC(=O)CCl)c1ccc(Cl)cc1Cl]	54	-16.295	-16.295	18
O=C(CCl)N1CCN(c2ccccn2)CC1 [PCM-0102213, O=C(CCl)N1CCN(c2ccccn2)CC1]	0	-15.928	-15.928	0
Cc1cc(Cl)ccc1NC(=O)CCl [PCM-0102214, Cc1cc(Cl)ccc1NC(=O)CCl]	8	-16.385	-16.385	39
CC1CCN(C(=O)CCl)c2ccccc2S1 (stereo not shown) [PCM-0102216, CC1CCN(C(=O)CCl)c2ccccc2S1]	32	-16.224	-16.224	0
O=C(CCl)Nc1ccc(F)c(Cl)c1 [PCM-0102217, O=C(CCl)Nc1ccc(F)c(Cl)c1]	0	-15.473	-15.473	14
O=C(Nc1ccccc1)C1CCN(C(=O)CCl)CC1 [PCM-0102219, O=C(Nc1ccccc1)C1CCN(C(=O)CCl)CC1]	0	-15.089	-15.089	0
CS(=O)(=O)c1ccc(Cl)c(NC(=O)CCl)c1 [PCM-0102220, CS(=O)(=O)c1ccc(Cl)c(NC(=O)CCl)c1]	5	-15.663	-15.663	0
CNC(=O)C1CN(C(=O)CCl)c2ccccc2O1 (stereo not shown) [PCM-0102221, CNC(=O)C1CN(C(=O)CCl)c2ccccc2O1]	0	-15.966	-15.966	15
N#CC(c1cccs1)N1CCN(C(=O)CCl)CC1 (stereo not shown) [PCM-0102223, N#CC(c1cccs1)N1CCN(C(=O)CCl)CC1]	0	-15.143	-15.143	0
Cc1ccc(-n2nc(C)cc2NC(=O)CCl)cc1 [PCM-0102224, Cc1ccc(-n2nc(C)cc2NC(=O)CCl)cc1]	0	-16.116	-16.116	35
CC(NC(=O)CCl)c1ccc(F)cc1 (stereo not shown) [PCM-0102228, CC(NC(=O)CCl)c1ccc(F)cc1]	7	-15.820	-15.820	20
CC1(NC(=O)CCl)CCS(=O)(=O)C1 (stereo not shown) [PCM-0102230, CC1(NC(=O)CCl)CCS(=O)(=O)C1]	0	-16.090	-16.090	0
CCc1nc(NC(=O)CCl)sc1C [PCM-0102231, CCc1nc(NC(=O)CCl)sc1C]	33	-15.238	-15.238	0
O=C(CCl)Nc1ccccc1[N+](=O)[O-] [PCM-0102232, O=C(CCl)Nc1ccccc1[N+](=O)[O-]]	24	-15.562	-15.562	20
